B1: WT: wild-type TEM-1 β-lactamase (protein, UniProt P62593 24-286, looked up)
Beta-lactamase TEM: HPETLVKVKDAEDQLGARVGYIELDLNSGKILESFRPEERFPMMSTFKVLLCGAVLSRVDAGQEQLGRRIHYSQNDLVEYSPVTEKHLTDGMTVRELCSAAITMSDNTAANLLLTTIGGPKELTAFLHNMGDHVTRLDRWEPELNEAIPNDERDTTMPAAMATTLRKLLTGELLTLASRQQLIDWMEADKVAGPLLRSALPAGWFIADKSGAGERGSRGIIAALGPDGKPSRIVVIYTTGSQATMDERNRQIAEIGASLIKHW

Experiments:
[1] = target: TEM-1 β-lactamase M182T/G238S (Escherichia coli, UniProt P62593, G236S/M180T); test: DSF shift in Tm after incubation with moxalactam, M182T/G238S; assay type: binding; details: 100-fold molar excess moxalactam
TEM-1 β-lactamase G238S = TEM-1 β-lactamase G238S (Escherichia coli, UniProt P62593, G236S); test: DSF shift in Tm after incubation with moxalactam, G238S; assay type: binding; details: 100-fold molar excess moxalactam
[2] = target: TEM-1 β-lactamase WT (native enzyme) (Escherichia coli, UniProt P62593); test: DSF shift in Tm after incubation with moxalactam, WT; assay type: binding; details: 100-fold molar excess moxalactam
TEM-1 β-lactamase M182T = TEM-1 β-lactamase M182T (Escherichia coli, UniProt P62593, M180T); test: DSF shift in Tm after incubation with moxalactam, M182T; assay type: binding; details: 100-fold molar excess moxalactam
Sor/CR colloids = assay type: binding; details: concentration of TEM-1 mutant at which 50% of fluorescent L2gd is displaced; 100 nM 5-MF-L2gd, 20 μM Sor/CR colloids
[3] = van't Hoff enthalpy of unfolding; assay type: physicochemical; details: Table S1

Row | Molecule | effect on Tm [1] | destabilization (lowering of Tm) (TEM-1 β-lactamase G238S) | lowering of Tm [2] | destabilization (lowering of Tm) (TEM-1 β-lactamase M182T) | EC50 (Sor/CR colloids) | van't Hoff enthalpy of unfolding [3]
1 | CO[C@@]1(NC(=O)[C@H](C(=O)O)c2ccc(O)cc2)C(=O)N2C(C(=O)O)=C(CSc3nnnn3C)CO[C@@H]21 [moxalactam] | no substantial effect | 1.9 °C | 4.5 °C | 4.1 °C | – | –
2 | B1 | – | – | – | – | 577 ± 303 µM | 139.5 kcal/mol
